Measurements: patent US10759781B2, “Substituted guanidine derivatives” (UBE INDUSTRIES, LTD., priority 2015, dated 2020)
Counter-ions that a name gives are not always drawn.

Assays:
[1] = target: T1, Human VAP-1 enzyme (Homo sapiens, UniProt Q16853); experiment: Human VAP-1 enzyme inhibition test; type: biochemical; details: 1 h; compound 30 nM; 14C-benzylamine 100 μM; read-out: inhibition ratio (human VAP-1 enzyme)
T1 construct: purchased R&D Systems, Inc
T1 sequence (Q16853 1-763): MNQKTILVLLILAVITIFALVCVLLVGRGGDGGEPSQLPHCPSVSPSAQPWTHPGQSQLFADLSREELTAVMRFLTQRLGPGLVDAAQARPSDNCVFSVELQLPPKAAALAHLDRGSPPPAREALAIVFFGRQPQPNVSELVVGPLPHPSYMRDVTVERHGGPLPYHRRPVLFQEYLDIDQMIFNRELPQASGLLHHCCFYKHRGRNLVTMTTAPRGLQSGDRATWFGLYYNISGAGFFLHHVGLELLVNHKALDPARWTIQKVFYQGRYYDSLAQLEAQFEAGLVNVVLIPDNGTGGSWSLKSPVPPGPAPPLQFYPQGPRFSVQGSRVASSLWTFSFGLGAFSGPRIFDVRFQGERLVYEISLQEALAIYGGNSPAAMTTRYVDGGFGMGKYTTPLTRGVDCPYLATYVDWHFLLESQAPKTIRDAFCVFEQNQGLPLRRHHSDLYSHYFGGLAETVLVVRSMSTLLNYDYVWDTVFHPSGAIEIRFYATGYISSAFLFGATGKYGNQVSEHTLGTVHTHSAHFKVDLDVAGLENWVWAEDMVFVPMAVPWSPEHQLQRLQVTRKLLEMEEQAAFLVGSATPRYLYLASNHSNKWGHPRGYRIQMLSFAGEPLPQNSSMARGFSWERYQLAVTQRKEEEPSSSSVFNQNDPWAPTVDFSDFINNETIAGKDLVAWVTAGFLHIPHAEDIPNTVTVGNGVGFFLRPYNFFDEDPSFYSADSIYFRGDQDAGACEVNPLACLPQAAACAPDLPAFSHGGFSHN
Summary of the method: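 Recombinant human VAP-1 pre-incubated 20 min at room temperature with compound in DMSO, then reacted with 14C-benzylamine (100 μM final) 1 h at 37 °C. Citric acid stop; oxidized product extracted into toluene/ethyl acetate and counted by liquid scintillation. Inhibition ratio relative to DMSO-only activity.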

[2] = target: T2, Rat Plasma VAP-1 (Rattus norvegicus, UniProt O08590); experiment: (Ex vivo) rat plasma VAP-1 inhibition test after oral administration of the compound; type: in vivo; details: 3 hours after oral administration, SD male rats, read-out: inhibition ratio (plasma VAP-1, ex vivo)
T2 construct: from tissue; host or cells: plasma of SD male rats (7-12 weeks old) after oral dosing
T2 sequence (O08590 28-763 limits assumed): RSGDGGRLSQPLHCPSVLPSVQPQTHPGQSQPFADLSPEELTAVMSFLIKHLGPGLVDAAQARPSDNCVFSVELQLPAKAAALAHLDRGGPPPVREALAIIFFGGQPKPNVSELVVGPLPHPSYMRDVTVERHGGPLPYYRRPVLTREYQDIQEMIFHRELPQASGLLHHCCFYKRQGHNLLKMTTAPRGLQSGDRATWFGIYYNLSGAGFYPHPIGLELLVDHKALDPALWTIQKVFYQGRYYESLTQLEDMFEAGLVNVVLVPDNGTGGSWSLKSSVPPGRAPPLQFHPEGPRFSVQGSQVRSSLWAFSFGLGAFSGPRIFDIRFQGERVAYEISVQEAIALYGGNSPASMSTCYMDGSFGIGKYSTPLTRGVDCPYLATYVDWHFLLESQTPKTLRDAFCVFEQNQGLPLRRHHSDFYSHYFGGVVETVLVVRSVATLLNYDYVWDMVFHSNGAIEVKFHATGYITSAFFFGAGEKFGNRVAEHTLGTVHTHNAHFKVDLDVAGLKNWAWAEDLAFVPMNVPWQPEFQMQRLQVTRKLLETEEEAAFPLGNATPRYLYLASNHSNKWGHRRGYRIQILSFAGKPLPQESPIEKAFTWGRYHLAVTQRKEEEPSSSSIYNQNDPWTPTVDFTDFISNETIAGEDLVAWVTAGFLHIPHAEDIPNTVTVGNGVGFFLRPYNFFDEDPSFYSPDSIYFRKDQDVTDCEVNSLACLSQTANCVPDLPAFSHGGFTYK
Procedure: (Ex Vivo) Rat Plasma VAP-1 Inhibition Test after Oral Administration of the Compound
The compound was orally administered (0.3-10 mg/kg) to 7-12 week old SD male rats in the non-fasting state. Under anesthesia, the blood was collected in heparin tubes from the jugular vein before the administration and 3, 8 and 24 hours after the administration. The blood was centrifuged at 14000 rpm for 10 minutes to get plasma. The VAP-1 enzyme activity in the plasma was measured by radiochemical enzyme assay.
The radiochemical enzyme assay was conducted by modifying the method of P. H. Yu et al. (Diabetologia 40 1243 (1997)). ^14C-benzylamine (2.5 μM) was added to the obtained plasma, and was incubated at 37° C. for 3 hours. The reaction was terminated by the addition of 100 μL of 2 M citric acid solution to the reaction solution. The oxidative product was extracted using a toluene/ethyl acetate mixture and the radioactivity was measured with a liquid scintillation counter. The inhibition ratio of the compound was calculated using the following equation. Inhibition ratio={1−[Plasma VAP-1 activity after administration of the compound]/[Plasma VAP-1 activity before administration]}×100

SMILES | inhibition at 0.03 µM [1] | inhibition in vivo at 0.3 mg/kg [2]
N=C(N)NC(=O)OCc1cccc(-c2cnc(N3CCC(=NO)CC3)nc2)c1F [Example 105, 2-Fluoro-3-{2-[4-(hydroxyimino)piperidin-1-yl]pyrimidin-5-yl}benzyl carbamimidoylcarbamate hydrochloride] | ≥ 50% | ≥ 50%
CN(C)C(=O)CCON=C1CCN(c2ncc(-c3cccc(COC(=O)NC(=N)N)c3F)cn2)CC1 [Example 154, 3-[2-(4-{[3-(Dimethylamino)-3-oxopropoxy]imino}piperidin-1-yl)pyrimidin-5-yl]-2-fluorobenzyl carbamimidoylcarbamate] | ≥ 50% | ≥ 50%
CS(=O)(=O)NCCON=C1CCN(c2ncc(-c3cccc(COC(=O)NC(=N)N)c3F)cn2)CC1 [Example 159, 2-Fluoro-3-[2-(4-{[2-(methylsulfonamido)ethoxy]imino}piperidin-1-yl)pyrimidin-5-yl]benzyl carbamimidoylcarbamate] | ≥ 50% | ≥ 50%
Cn1ccc(CON=C2CCN(c3ncc(-c4cccc(COC(=O)NC(=N)N)c4F)cn3)CC2)n1 [Example 169, 2-Fluoro-3-[2-(4-{[(1-methyl-1H-pyrazol-3-yl)methoxy]imino}piperidin-1-yl)pyrimidin-5-yl]benzyl carbamimidoylcarbamate] | ≥ 50% | ≥ 50%
N=C(N)NC(=O)OCc1cccc(-c2cnc(N3CCC(=NOCc4cc[nH]n4)CC3)nc2)c1F [Example 171, 3-[2-(4-{[(1H-pyrazol-3-yl)methoxy]imino}piperidin-1-yl)pyrimidin-5-yl]-2-fluorobenzyl carbamimidoylcarbamate] | ≥ 50% | ≥ 50%
N=C(N)NC(=O)OCc1cccc(-c2cnc(N3CCC(=NOCc4cn[nH]c4)CC3)nc2)c1F [Example 173, 3-[2-(4-{[(1H-pyrazol-4-yl)methoxy]imino}piperidin-1-yl)pyrimidin-5-yl]-2-fluorobenzyl carbamimidoylcarbamate] | ≥ 50% | ≥ 50%
Cn1cc(CON=C2CCN(c3ncc(-c4cccc(COC(=O)NC(=N)N)c4F)cn3)CC2)cn1 [Example 174, 2-Fluoro-3-[2-(4-{[(1-methyl-1H-pyrazol-4-yl)methoxy]imino}piperidin-1-yl)pyrimidin-5-yl]benzyl carbamimidoylcarbamate] | ≥ 50% | ≥ 50%
N=C(N)NC(=O)OCc1cccc(-c2cnc(N3CCC(=NOCCn4cccn4)CC3)nc2)c1F [Example 175, 3-[2-(4-{[2-(1H-pyrazol-1-yl)ethoxy]imino}piperidin-1-yl)pyrimidin-5-yl]-2-fluorobenzyl carbamimidoylcarbamate] | ≥ 50% | ≥ 50%
N=C(N)NC(=O)OCc1cccc(-c2cnc(N3CCC(=NOCc4ccncc4)CC3)nc2)c1F [Example 176, 2-Fluoro-3-(2-{4-[(pyridin-4-ylmethoxy)imino]piperidin-1-yl}pyrimidin-5-yl)benzyl carbamimidoylcarbamate] | ≥ 50% | ≥ 50%
N=C(N)NC(=O)OCc1cccc(-c2cnc(N3CCC(=NOCCN4C(=O)CCC4=O)CC3)nc2)c1F [Example 177, 3-[2-(4-{[2-(2,5-Dioxopyrrolidin-1-yl)ethoxy]imino}piperidin-1-yl)pyrimidin-5-yl]-2-fluorobenzyl carbamimidoylcarbamate] | ≥ 50% | ≥ 50%

The remaining lines, values ahead:

inhibition at 0.03 µM [1] | inhibition in vivo at 0.3 mg/kg [2] | SMILES
≥ 50% | ≥ 50% | N=C(N)NC(=O)OCc1cccc(-c2cnc(N3CCC(=NOCCC(N)=O)CC3)nc2)c1F [Example 150, 3-(2-{4-[(3-Amino-3-oxopropoxy)imino]piperidin-1-yl}pyrimidin-5-yl)-2-fluorobenzyl carbamimidoylcarbamate]
≥ 50% | ≥ 50% | CNC(=O)CCON=C1CCN(c2ncc(-c3cccc(COC(=O)NC(=N)N)c3F)cn2)CC1 [Example 151, 2-Fluoro-3-[2-(4-{[3-(methylamino)-3-oxopropoxy]imino}piperidin-1-yl)pyrimidin-5-yl]benzyl carbamimidoylcarbamate]
≥ 50% | ≥ 50% | N=C(N)NC(=O)OCc1cccc(-c2cnc(N3CCC(=NOCCCC(=O)O)CC3)nc2)c1F [Example 153, 4-[({1-[5-(3-{[(Carbamimidoylcarbamoyl)oxy]methyl}-2-fluorophenyl)pyrimidin-2-yl]piperidin-4-ylidene}amino)oxy]butanoic acid]
≥ 50% | ≥ 50% | CC(=O)NCCON=C1CCN(c2ncc(-c3cccc(COC(=O)NC(=N)N)c3F)cn2)CC1 [Example 155, 3-(2-{4-[(2-Acetamidoethoxy)imino]piperidin-1-yl}pyrimidin-5-yl)-2-fluorobenzyl carbamimidoylcarbamate]
≥ 50% | ≥ 50% | CC(=O)N(C)CCON=C1CCN(c2ncc(-c3cccc(COC(=O)NC(=N)N)c3F)cn2)CC1 [Example 156, 2-Fluoro-3-[2-(4-{[2-(N-methylacetamido)ethoxy]imino}piperidin-1-yl)pyrimidin-5-yl]benzyl carbamimidoylcarbamate]
≥ 50% | ≥ 50% | N#CCCON=C1CCN(c2ncc(-c3cccc(COC(=O)NC(=N)N)c3F)cn2)CC1 [Example 165, 3-(2-{4-[(2-Cyanoethoxy)imino]piperidin-1-yl}pyrimidin-5-yl)-2-fluorobenzyl carbamimidoylcarbamate]
≥ 50% | ≥ 50% | N#CCCCON=C1CCN(c2ncc(-c3cccc(COC(=O)NC(=N)N)c3F)cn2)CC1 [Example 166, 3-(2-{4-[(3-Cyanopropoxy)imino]piperidin-1-yl}pyrimidin-5-yl)-2-fluorobenzyl carbamimidoylcarbamate]
≥ 50% | ≥ 50% | CS(=O)(=O)CCON=C1CCN(c2ncc(-c3cccc(COC(=O)NC(=N)N)c3F)cn2)CC1 [Example 167, 2-Fluoro-3-[2-(4-{[2-(methylsulfonyl)ethoxy]imino}piperidin-1-yl)pyrimidin-5-yl]benzyl carbamimidoylcarbamate]
≥ 50% | ≥ 50% | CS(=O)(=O)CCCON=C1CCN(c2ncc(-c3cccc(COC(=O)NC(=N)N)c3F)cn2)CC1 [Example 168, 2-Fluoro-3-[2-(4-{[3-(methylsulfonyl)propoxy]imino}piperidin-1-yl)pyrimidin-5-yl]benzyl carbamimidoylcarbamate]
